From EP4748847A1, “PEPTIDE COMPLEX HAVING VEGFR -2 AGONIST ACTIVITY” (Peptidream Inc, priority 2023, dated 2025)
*1 amine or outer side, *2 acyl side, *3 side chain or, on linkers, in order; H or OH if unused. Where a SMILES comes first, the peptide text is derived from it. Bridges are numbered along the chain shown (N, C = ends). Roman numbers before positions name the chains, in order. [ ]: non-standard residue; d: D form. The star is where a group is joined. CO(CH2)2(OCH2CH2)17CO = O=C(CCOCCOCCOCCOCCOCCOCCOCCOCCOCCOCCOCCOCCOCCOCCOCCOCCOCCC(=O)[*:2])[*:1]; PEG12 = NCCOCCOCCOCCOCCOCCOCCOCCOCCOCCOCCOCCOCCC(=O)O; Phe(4-guanidino) = N=C(N)Nc1ccc(C[C@H](N)C(=O)O)cc1; hTyr = N[C@@H](CCc1ccc(O)cc1)C(=O)O; Chg = N[C@H](C(=O)O)C1CCCCC1; Tle = CC(C)(C)[C@H](N)C(=O)O; Carboxymethyl = O=C(O)C*

Target: T1, VEGFR-2 (Homo sapiens, UniProt P35968)
T1 construct: endogenous in cells; host or cells: HUVEC
Test: pVEGFR AlphaLISA assay (VEGFR-2 phosphorylation, p-Tyr1175) in HUVECs
Format: cell-based
Details: 10 minutes stimulation, % activity, maximum VEGF165a signal = 100%, unstimulated = 0%, peptide 10, 100 nM (dimer structures 2-41)
Method: To evaluate the VEGFR-2 activation ability of the VEGFR-2 agonist peptides of the present invention, VEGFR-2 phosphorylation was verified. HUVECs were cultured using EGM™ -2 Endothelial Cell Growth Medium-2 BulletKit (LONZA; CC-3162). After detaching cells using Tryple (Thermo Fisher Scientific), they were seeded into a 96-well PDL-coated plate (Corning: 354461) at a density of 24,000 cells per well and cultured for 2 days. For starvation, the medium was replaced with EBM-2 medium (LONZA) containing 0.5% FBS (Thermo Fisher Scientific), 0.1% heparin (included with the above LONZA CC-3162), and 0.1% gentamicin (Nacalai), and the cells were cultured for 18 hours. Subsequently, Recombinant Human VEGF165a Protein (R&D Systems) or the peptide was added, and the cells were cultured in a CO2 incubator at 37°C. After 10 minutes of stimulation, cells were lysed using the Lysis Buffer included in the AlphaLISA SureFire Ultra VEGFR-2 (p-Tyr1175) Assay Kit (PerkinElmer) to lyse the cells. The procedure was performed according to the kit protocol, and signal detection was performed using a SpectraMax Paradigm multimode microplate reader (Molecular Devices). The obtained signals were analyzed using GraphPad Prism, and % activity was calculated with the maximum signal induced by VEGF165a set as 100% and the unstimulated control as 0%.
The VEGF165a concentration was evaluated at five points (0.08, 0.31, 1.25, 5, 20 nM) using 1/4-fold dilutions starting from 20 nM to determine the maximum value (100%). Peptide concentrations tested were: 3.2, 16, 80 nM for dimer structure number 1; 10, 100 nM for dimer structures numbers 2-41; and 1.25, 5, 20 nM for dimer structures numbers 42-57. […]
Peptides showing 50% or more activity at 10 nM were designated 2-A, those showing 50% or more activity at 100 nM were designated 2-B, and those showing 1% or more but less than 50% activity at 100 nM were designated 2-C.
Peptides showing 50% or more activity at 1.25 nM were designated 3-A, those showing 50% or more activity at 5 nM were designated 3-B, those showing 50% or more activity at 20 nM were designated 3-C, and those showing 1% or more but less than 50% activity at 20 nM were designated 3-D.

T1 sequence (P35968 20-1356): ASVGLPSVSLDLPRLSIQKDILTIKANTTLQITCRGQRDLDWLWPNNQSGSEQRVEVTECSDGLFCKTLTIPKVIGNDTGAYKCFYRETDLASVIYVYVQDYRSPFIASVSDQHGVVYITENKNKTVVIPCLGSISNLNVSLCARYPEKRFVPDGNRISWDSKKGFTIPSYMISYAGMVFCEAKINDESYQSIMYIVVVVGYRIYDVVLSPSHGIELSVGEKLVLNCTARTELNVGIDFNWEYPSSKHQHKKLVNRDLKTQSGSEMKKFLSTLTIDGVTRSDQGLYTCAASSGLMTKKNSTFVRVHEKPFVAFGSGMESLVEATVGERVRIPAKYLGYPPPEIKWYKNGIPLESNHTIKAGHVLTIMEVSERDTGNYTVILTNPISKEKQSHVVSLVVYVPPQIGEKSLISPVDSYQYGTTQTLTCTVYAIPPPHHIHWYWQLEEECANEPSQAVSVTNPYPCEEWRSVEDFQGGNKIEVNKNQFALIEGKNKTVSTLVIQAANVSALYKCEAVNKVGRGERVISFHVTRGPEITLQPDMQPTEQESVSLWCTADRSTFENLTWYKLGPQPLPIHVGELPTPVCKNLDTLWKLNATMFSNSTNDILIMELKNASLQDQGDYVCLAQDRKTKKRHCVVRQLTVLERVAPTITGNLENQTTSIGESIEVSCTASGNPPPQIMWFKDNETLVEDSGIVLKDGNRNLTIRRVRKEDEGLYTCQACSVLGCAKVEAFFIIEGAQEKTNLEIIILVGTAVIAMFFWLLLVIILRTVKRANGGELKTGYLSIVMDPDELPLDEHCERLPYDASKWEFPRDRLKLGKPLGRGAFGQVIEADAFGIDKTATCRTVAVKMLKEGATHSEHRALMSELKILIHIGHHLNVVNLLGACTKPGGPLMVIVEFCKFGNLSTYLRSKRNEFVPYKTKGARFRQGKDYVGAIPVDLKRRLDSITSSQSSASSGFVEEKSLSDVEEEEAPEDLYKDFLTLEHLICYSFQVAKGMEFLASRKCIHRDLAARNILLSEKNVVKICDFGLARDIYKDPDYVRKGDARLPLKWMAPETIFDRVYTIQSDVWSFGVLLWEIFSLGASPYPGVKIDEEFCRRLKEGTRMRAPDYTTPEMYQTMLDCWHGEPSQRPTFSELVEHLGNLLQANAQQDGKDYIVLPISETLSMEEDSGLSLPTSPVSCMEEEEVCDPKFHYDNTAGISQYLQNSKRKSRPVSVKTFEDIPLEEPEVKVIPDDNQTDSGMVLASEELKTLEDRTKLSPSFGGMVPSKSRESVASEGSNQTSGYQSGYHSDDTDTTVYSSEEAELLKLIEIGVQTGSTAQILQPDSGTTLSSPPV

Row | Compound | pVEGFR2 Assay Results
1 | CC(C)C[C@@H]1NC(=O)[C@H](CC(=O)O)NC(=O)[C@H](CC(=O)O)NC(=O)[C@H](CCCCNC(=O)CCOCCOCCOCCOCCOCCOCCOCCOCCOCCOCCOCCOCCOCCOCCOCCOCCOCCC(=O)NCCCC[C@@H]2NC(=O)[C@H](C(C)C)NC(=O)[C@H](CC(=O)O)NC(=O)[C@H](C(C)(C)C)NC(=O)[C@H](Cc3c[nH]c4ccccc34)NC(=O)[C@H](Cc3c[nH]c4ccccc34)NC(=O)CSC[C@@H](C(=O)NCC(N)=O)NC(=O)[C@H](CC(=O)O)NC(=O)[C@H](C(C)C)NC(=O)[C@H](Cc3ccc(NC(=N)N)cc3)NC(=O)[C@H](Cc3ccc(O)cc3)NC(=O)[C@H](CC(C)C)NC(=O)[C@H](CC(=O)O)NC(=O)[C@H](CC(=O)O)NC2=O)NC(=O)[C@H](C(C)C)NC(=O)[C@H](CC(=O)O)NC(=O)[C@H](C(C)(C)C)NC(=O)[C@H](Cc2c[nH]c3ccccc23)NC(=O)[C@H](Cc2c[nH]c3ccccc23)NC(=O)CSC[C@@H](C(=O)NCC(N)=O)NC(=O)[C@H](CC(=O)O)NC(=O)[C@H](C(C)C)NC(=O)[C@H](Cc2ccc(NC(=N)N)cc2)NC(=O)[C@H](Cc2ccc(O)cc2)NC1=O [Dimer Structure No. 43] (I: {CH2CO}-WW[Tle]DVKDDLY[Phe(4-guanidino)]VDCG-NH2 / II: {CH2CO}-WW[Tle]DVKDDLY[Phe(4-guanidino)]VDCG-NH2; linker I:6-II:6 via CO(CH2)2(OCH2CH2)17CO; thioether I:N-I:14, II:N-II:14) | 2-C (1% or more but less than 50% activity at 100 nM)
2 | CC(C)C[C@@H]1NC(=O)[C@H](CC(=O)O)NC(=O)CNC(=O)[C@H](CCC(N)=O)NC(=O)[C@H](C(C)C)NC(=O)[C@H](CC(=O)O)NC(=O)[C@H](C(C)C)NC(=O)[C@H](Cc2c[nH]c3ccccc23)NC(=O)[C@H](Cc2c[nH]c3ccccc23)NC(=O)CSC[C@@H](C(=O)NCC(=O)NCCOCCOCCOCCOCCOCCOCCOCCOCCOCCOCCOCCOCCC(=O)NCCCC[C@H](NC(=O)CCOCCOCCOCCOCCOCCOCCOCCOCCOCCOCCOCCOCCNC(=O)CNC(=O)[C@@H]2CSCC(=O)N[C@@H](Cc3c[nH]c4ccccc34)C(=O)N[C@@H](Cc3c[nH]c4ccccc34)C(=O)N[C@@H](C(C)C)C(=O)N[C@@H](CC(=O)O)C(=O)N[C@@H](C(C)C)C(=O)N[C@@H](CCC(N)=O)C(=O)NCC(=O)N[C@@H](CC(=O)O)C(=O)N[C@@H](CC(C)C)C(=O)N[C@@H](Cc3ccc(O)cc3)C(=O)N[C@@H](Cc3ccccc3)C(=O)N[C@@H](C(C)C)C(=O)N[C@@H](CC(=O)O)C(=O)N2)C(N)=O)NC(=O)[C@H](CC(=O)O)NC(=O)[C@H](C(C)C)NC(=O)[C@H](Cc2ccccc2)NC(=O)[C@H](Cc2ccc(O)cc2)NC1=O [compound 7] (I: {CH2CO}-WWVDVQGDLYFVDCG[PEG12]K-NH2 / II: {CH2CO}-WWVDVQGDLYFVDCG[PEG12]; amide I:17-II:C; thioether I:N-I:14, II:N-II:14) | 2-C (1% or more but less than 50% activity at 100 nM)
3 | CC(C)C[C@@H]1NC(=O)[C@H](CC(=O)O)NC(=O)[C@H](CC(=O)O)NC(=O)[C@H](CCC(N)=O)NC(=O)[C@H](C(C)C)NC(=O)[C@H](CC(=O)O)NC(=O)[C@H](C(C)C)NC(=O)[C@H](Cc2c[nH]c3ccccc23)NC(=O)[C@H](Cc2c[nH]c3ccccc23)NC(=O)CSC[C@@H](C(=O)NCC(=O)NCCOCCOCCOCCOCCOCCOCCOCCOCCOCCOCCOCCOCCC(=O)NCCCC[C@H](NC(=O)CCOCCOCCOCCOCCOCCOCCOCCOCCOCCOCCOCCOCCNC(=O)CNC(=O)[C@@H]2CSCC(=O)N[C@@H](Cc3c[nH]c4ccccc34)C(=O)N[C@@H](Cc3c[nH]c4ccccc34)C(=O)N[C@@H](C(C)C)C(=O)N[C@@H](CC(=O)O)C(=O)N[C@@H](C(C)C)C(=O)N[C@@H](CCC(N)=O)C(=O)N[C@@H](CC(=O)O)C(=O)N[C@@H](CC(=O)O)C(=O)N[C@@H](CC(C)C)C(=O)N[C@@H](Cc3ccc(O)cc3)C(=O)N[C@@H](Cc3ccccc3)C(=O)N[C@@H](C(C)C)C(=O)N[C@@H](CO)C(=O)N2)C(N)=O)NC(=O)[C@H](CO)NC(=O)[C@H](C(C)C)NC(=O)[C@H](Cc2ccccc2)NC(=O)[C@H](Cc2ccc(O)cc2)NC1=O [compound 11] (I: {CH2CO}-WWVDVQDDLYFVSCG[PEG12]K-NH2 / II: {CH2CO}-WWVDVQDDLYFVSCG[PEG12]; amide I:17-II:C; thioether I:N-I:14, II:N-II:14) | 2-C (1% or more but less than 50% activity at 100 nM)
4 | CC(C)C[C@@H]1NC(=O)[C@H](CC(=O)O)NC(=O)[C@H](CC(=O)O)NC(=O)[C@H](CCCCNC(=O)CCOCCOCCOCCOCCOCCOCCOCCOCCOCCOCCOCCOCCOCCOCCOCCOCCOCCC(=O)NCCCC[C@@H]2NC(=O)[C@H](C(C)C)NC(=O)[C@H](CC(=O)O)NC(=O)[C@H](C(C)(C)C)NC(=O)[C@H](Cc3c[nH]c4ccccc34)NC(=O)[C@H](Cc3ccc(OCC(=O)O)cc3)NC(=O)CSC[C@@H](C(=O)NCC(N)=O)NC(=O)[C@H](CC(=O)O)NC(=O)[C@H](CCc3ccc(O)cc3)NC(=O)[C@H](Cc3ccccc3)NC(=O)[C@H](Cc3ccc(O)cc3)NC(=O)[C@H](CC(C)C)NC(=O)[C@H](CC(=O)O)NC(=O)[C@H](CC(=O)O)NC2=O)NC(=O)[C@H](C(C)C)NC(=O)[C@H](CC(=O)O)NC(=O)[C@H](C(C)(C)C)NC(=O)[C@H](Cc2c[nH]c3ccccc23)NC(=O)[C@H](Cc2ccc(OCC(=O)O)cc2)NC(=O)CSC[C@@H](C(=O)NCC(N)=O)NC(=O)[C@H](CC(=O)O)NC(=O)[C@H](CCc2ccc(O)cc2)NC(=O)[C@H](Cc2ccccc2)NC(=O)[C@H](Cc2ccc(O)cc2)NC1=O [compound 24] (I: {CH2CO}-Y(Carboxymethyl)W[Tle]DVKDDLYF[hTyr]DCG-NH2 / II: {CH2CO}-Y(Carboxymethyl)W[Tle]DVKDDLYF[hTyr]DCG-NH2; linker I:6-II:6 via CO(CH2)2(OCH2CH2)17CO; thioether I:N-I:14, II:N-II:14) | 2-B (50% or more activity at 100 nM)
5 | CC(C)C[C@@H]1NC(=O)[C@H](CC(=O)O)NC(=O)[C@H](CC(=O)O)NC(=O)[C@H](CCCCNC(=O)CCOCCOCCOCCOCCOCCOCCOCCOCCOCCOCCOCCOCCOCCOCCOCCOCCOCCC(=O)NCCCC[C@@H]2NC(=O)[C@H](C(C)C)NC(=O)[C@H](CC(=O)O)NC(=O)[C@H](C3CCCCC3)NC(=O)[C@H](Cc3c[nH]c4ccccc34)NC(=O)[C@H](Cc3c[nH]c4ccccc34)NC(=O)CSC[C@@H](C(=O)NCC(N)=O)NC(=O)[C@H](CC(=O)O)NC(=O)[C@H](CCc3ccc(O)cc3)NC(=O)[C@H](Cc3ccccc3)NC(=O)[C@H](Cc3ccc(O)cc3)NC(=O)[C@H](CC(C)C)NC(=O)[C@H](CC(=O)O)NC(=O)[C@H](CC(=O)O)NC2=O)NC(=O)[C@H](C(C)C)NC(=O)[C@H](CC(=O)O)NC(=O)[C@H](C2CCCCC2)NC(=O)[C@H](Cc2c[nH]c3ccccc23)NC(=O)[C@H](Cc2c[nH]c3ccccc23)NC(=O)CSC[C@@H](C(=O)NCC(N)=O)NC(=O)[C@H](CC(=O)O)NC(=O)[C@H](CCc2ccc(O)cc2)NC(=O)[C@H](Cc2ccccc2)NC(=O)[C@H](Cc2ccc(O)cc2)NC1=O [compound 25] (I: {CH2CO}-WW[Chg]DVKDDLYF[hTyr]DCG-NH2 / II: {CH2CO}-WW[Chg]DVKDDLYF[hTyr]DCG-NH2; linker I:6-II:6 via CO(CH2)2(OCH2CH2)17CO; thioether I:N-I:14, II:N-II:14) | 2-C (1% or more but less than 50% activity at 100 nM)
6 | CC(C)C[C@@H]1NC(=O)[C@H](CC(=O)O)NC(=O)[C@H](CC(=O)O)NC(=O)[C@H](CCCCNC(=O)CCOCCOCCOCCOCCOCCOCCOCCOCCOCCOCCOCCOCCOCCOCCOCCOCCOCCC(=O)NCCCC[C@@H]2NC(=O)[C@H](C(C)C)NC(=O)[C@H](CCC(N)=O)NC(=O)[C@H](C(C)(C)C)NC(=O)[C@H](Cc3c[nH]c4ccccc34)NC(=O)[C@H](Cc3c[nH]c4ccccc34)NC(=O)CSC[C@@H](C(=O)NCC(N)=O)NC(=O)[C@H](CC(=O)O)NC(=O)[C@H](CCc3ccc(O)cc3)NC(=O)[C@H](Cc3ccccc3)NC(=O)[C@H](Cc3ccc(O)cc3)NC(=O)[C@H](CC(C)C)NC(=O)[C@H](CC(=O)O)NC(=O)[C@H](CC(=O)O)NC2=O)NC(=O)[C@H](C(C)C)NC(=O)[C@H](CCC(N)=O)NC(=O)[C@H](C(C)(C)C)NC(=O)[C@H](Cc2c[nH]c3ccccc23)NC(=O)[C@H](Cc2c[nH]c3ccccc23)NC(=O)CSC[C@@H](C(=O)NCC(N)=O)NC(=O)[C@H](CC(=O)O)NC(=O)[C@H](CCc2ccc(O)cc2)NC(=O)[C@H](Cc2ccccc2)NC(=O)[C@H](Cc2ccc(O)cc2)NC1=O [compound 26] (I: {CH2CO}-WW[Tle]QVKDDLYF[hTyr]DCG-NH2 / II: {CH2CO}-WW[Tle]QVKDDLYF[hTyr]DCG-NH2; linker I:6-II:6 via CO(CH2)2(OCH2CH2)17CO; thioether I:N-I:14, II:N-II:14) | 2-B (50% or more activity at 100 nM)
